Results as given in patent US20220204918A1, “CELL CULTURE MEDIA COMPRISING KETO ACIDS” (MERCK PATENT GMBH, priority 2019, published 2022).
Converted amounts (≈) assume the structure as drawn. Counter-ions that a name gives are not always drawn.

Experiments:
[1] = Solubility in water at 25° C. (saturated solution, residual mass after infrared drying); type: physicochemical; conditions: for Solubility (amino acid) / Solubility 25° C. in g/kg (corresponding keto acid) / maximum solubilities obtained in water: water; for Solubility (amino acid) / Solubility 25° C. in g/kg (corresponding keto acid): 25° C.; for maximum solubilities obtained in water: separate experiments
Protocol: After sedimentation, the solution was dried using infrared (120° C., 120 min) and the residual mass was determined in g/kg.

physchem = conditions: for solubility at 10 min: 25 °C, pH 7, aqueous with cosolvent or surfactant or cyclodextrin, thermodynamic from solid
Protocol: Increasing amounts of the keto acids and salts thereof were added to a cell culture feed formulation (Cellvento® 4Feed, MilliporeSigma) depleted in Ile and Leu. Similarly, increasing amount of Ile and Leu were added to the same feed formulation as a control. The total concentration of this feed formulation was 125 g/L and the pH was 7.0+/−0.2. In small scale experiments, after each addition of either the amino acid or the keto acid, the feed was agitated for 10 mins and turbidity was measured. The experiments were performed at room temperature (25° C.).

[2] = Feed stability: change in color, AUC of absorbance 300-600 nm over 90 days; type: physicochemical
Protocol: The stability of a feed containing Ile and Leu (Cellvento® 4Feed) was compared to the stability of the same feed depleted in Ile/Leu and with supplementation of either keto Leu or keto Ile. The feeds were prepared according to the standard protocol. The final pH was 7.0+/−0.2 and the feeds were stored at 4° C. or RT protected or exposed to light. The change in color of the formulations were monitored during 90 days by measuring the absorbance in the range from 300 nm to 600 nm (intervals of 5 nm). Conditions were compared by calculating the area under the curve (AUC) over time (between D0 and D90) of the baseline corrected area under the curve of the absorbance scan (300 nm-600 nm).

[3] = Feed stability: NH3 formed during 3 months storage (AUC of NH3 concentration); type: physicochemical; conditions: for less ammonia produced compared to control: 4° C.; for reduced ammonia level compared to control: RT
Protocol: Finally, the amount of ammonium ions formed during storage of the feed containing keto acids at 4° C. or RT was lower when compared to the feed containing the normal amino acids. To be able to evaluate the formation of the NH3 over the entire period of the stability study, the AUC of the NH3 concentration was calculated for the timeframe of 3 months to compare the conditions.

[4] = test system: CHOK1GS suspension cell line expressing a human IgG1; assay: 17-days fed-batch process with keto acid replacing amino acid in the feed; type: cell-based; conditions: for amount of NH3 produced compared to control: 17-days fed-batch
Protocol: For cell culture experiments, a CHOK1GS suspension cell line expressing a human IgG1, was used. Cells were cultivated in quadruplicate in Cellvento 4CHO medium (Merck Darmstadt, Germany) using 50 mL spin tubes with a starting culture volume of 30 mL and a seeding density of 2×10^5 cells/mL. Incubation was carried out at 37° C., 5% CO2, 80% humidity and an agitation of 320 rpm. The keto acids were added in the Feed (4Feed depleted in Ile and leu) instead of their respective amino acids. The pH of all the feeds was neutral (pH 7.0+/−0.2). The positive control contained the normal amino acids whereas the negative control contained the feed depleted in the respective amino acid and without addition of keto acid. Feeding was carried out at days 3, 5, 7, 10 and 14 at the following v/v ratios (3, 3, 6, 3 and 3%). Glucose was quantified daily and adjusted to 6 g/L using a 400 g/L glucose solution. The experiment was repeated at least 3 times.
The viable cell density (VCD) and viability were evaluated with a Vi-CELL XR (Beckman Coulter, Fullerton, Calif.). Metabolite concentrations were monitored using a Cedex Bio HT (Roche Diagnostics, Mannheim, Germany) based on spectrophotometric and turbidometric methods. Quantification of amino acids was carried out via UPLC after derivatization with the AccQ⋅TagUltra® reagent kit. Derivatization, chromatography and data analysis were carried out following the supplier recommendations (Waters, Milford, Mass.).
The productivity per cell per day was calculated daily by dividing the titer by the corrected integral VCD to take into account the dilution resulting from feeding. The overall specific productivity was determined by calculating the slope from the linear regression between titer and corrected integral VCD.

CHOK1GS cell line [5] = assay: Serial passaging and batch experiment in Leu/Ile depleted Cellvento 4CHO with keto acids; type: cell-based; conditions: for initial keto acid concentration detected in form of the amino acid: day 3
From the text: To confirm that this is applicable in CHO systems, keto Leu or keto Ile were used as replacement for Leu and Ile respectively in a cell culture medium (Cellvento® 4CHO). A Leu/Ile depleted version of the formulation was produced and equimolar concentrations of keto Leu vs Leu and keto Ile vs Ile were used (FIG. 15). Cell growth and viability of a CHOK1GS cell line were monitored over several weeks in serial passaging experiments to make sure that the growth is not due to residual amounts of Leu or Ile. A batch experiment with a seeding density of 0.2 million cells/mL was designed and IgG production was measured over time. The production of the amino acids was followed with time using amino acids quantification in the spent medium.

[6] = Feed stability: precipitation during storage; type: physicochemical
Protocol: In addition, when using keto Leu instead of Leu in the feed, the precipitation of the feed was delayed. To observe precipitation, the 50 mL falcon tubes were turned back to see possible sedimentation on the bottom of the tube and pictures were taken. […] A complete inhibition of precipitation was not observed at RT exposed to light but the precipitation was delayed in the keto Leu condition. Whereas precipitation was observed starting at D49 for the control condition, initial precipitation appeared at D70 for the keto Leu condition.

[7] = test system: CHODG44 cell line expressing an IgG1; assay: Fed-batch with keto Leu, CHODG44; type: cell-based
CHOK1GS cell line [8] = assay: Batch experiments with higher seeding densities and different Leu/keto Leu ratios; type: cell-based
Protocol: In a similar way, batch experiments with higher cell seeding densities were performed in media containing different ratios of Leu/keto Leu to understand which ratios are preferable when starting with higher cell densities (FIG. 16). The analytic used was the same as described above.
Finally, batch experiments with higher cell densities were performed to determine whether keto Leu is readily available when starting with high seeding densities or if a minimum concentration of free leucine has to be present to support growth and productivity in these conditions. For this experiment, a CHOK1GS cell line was seeded at 0.3, 0.6 or 1.10^6 cells/mL in a medium containing 0, 25, 50, 75, or 100% of keto Leu, the rest being added in form of Leucine.

[9] = FB culture with other keto acids replacing their amino acid in the feed; type: cell-based
From the text: Other keto acids have been tested as replacement for their respective amino acids in FB experiments. A very similar behavior compared to Ile and Leu was observed when Val was replaced by keto Val in the feed (FIG. 17). Indeed, similar VCD and titer were observed compared to the positive control whereas the feed depleted in Val leads to a drastic decrease in the VCD, as well as a very low titer after day 7. […] Due to the structural similarity to keto Ile and keto Leu, the effect of keto Val on overall feed concentration and feed stability is similar to the other branched chain keto acids. 6× higher solubility when compared to Val was confirmed in water.
For phenylalanine (Phe) and its respective keto acid phenylpyruvate (FIG. 18), the amination reaction to build Phe in cell culture seemed to be slower than the amination reactions occurring for branched chain keto acids. […] Following that result, a condition where 2× the molar equivalent of Phe was used as a concentration of phenylpyruvate in the feed.

[10] = batch, seeding density 0.2 million cells/mL
[11] = equivalent molar concentration (1×)
[12] = Val replaced by keto Val in the feed

## CC[C@H](C)[C@H](N)C(=O)O [Isoleucine, reference compound]
[1]
  Solubility (amino acid): 32.4 g/kg
physchem
  solubility at 10 min: ~105 mM (≈ 13.8 mg/mL)

## CC(C)[C@H](N)C(=O)O [Valine, reference compound]
[1]
  Solubility (amino acid): 58.5 g/kg

## CCC(C)C(=O)C(=O)[O-].[Na+] (stereo not drawn) [keto Ile, 3-Methyl-2-oxopentanoic acid sodium salt]
[1]
  Solubility 25° C. in g/kg (corresponding keto acid): 480 g/kg
physchem
  times more soluble than the amino acid: at least 6 times
  solubility at 10 min: ≥ 635 mM
[2]; 4° C., light exposed
  decrease of AUC (change in color) vs control: 68%
[2]; 4° C., light protected
  decrease of AUC (change in color) vs control: 33%
[2]; RT, light exposed
  decrease of AUC (change in color) vs control: 38%
[2]; RT, light protected
  decrease of AUC (change in color) vs control: no decrease
[3]; light exposed
  less ammonia produced compared to control: 24%
  reduced ammonia level compared to control: 25%
[3]; light protected
  less ammonia produced compared to control: 21%
  reduced ammonia level compared to control: 28%
[4]
  amount of NH3 produced compared to control: significantly reduced
[4]; Ile replaced with keto Ile
  allo-Ile peak in spent medium: increased with time
  concentration of Ile in the spent medium vs positive control: significantly lower
CHOK1GS cell line [5]; [10]
  IgG vs control: slightly impaired
  growth / performance vs control: slightly impaired
CHOK1GS cell line [5]; spent medium
  initial keto acid concentration detected in form of the amino acid: 21%
CHOK1GS cell line [5]; spent medium, up to day 10
  initial keto Ile concentration detected in the form of allo-Ile: 35%

## CSCCC(=O)C(=O)O [Alpha keto gamma methylthiobutyric acid sodium salt]
[1]
  Solubility 25° C. in g/kg (corresponding keto acid): >500 g/kg

## CC(C)CC(=O)C(=O)[O-].[Na+] [keto Leu, 4-Methyl-2-oxopentanoic acid sodium salt]
[1]
  maximum solubilities obtained in water: 313.7 g/kg
  Solubility 25° C. in g/kg (corresponding keto acid): 313.7 g/kg
physchem
  times more soluble than the amino acid: 2.6 times
  solubility at 10 min: 240 mM
[2]; 4° C., light exposed
  decrease of AUC (change in color) vs control: 8%
[2]; 4° C., light protected
  decrease of AUC (change in color) vs control: 27%
[2]; RT, light exposed
  decrease of AUC (change in color) vs control: 37%
[2]; RT, light protected
  decrease of AUC (change in color) vs control: 31%
[6]; RT light exposed, days after D70
  amount and color intensity of precipitate vs control: lower
[6]; RT light protected
  precipitation: no precipitation
[3]; light exposed
  less ammonia produced compared to control: 19%
  reduced ammonia level compared to control: 5%
[3]; light protected
  less ammonia produced compared to control: 10%
  reduced ammonia level compared to control: 15%
[4]
  amount of NH3 produced compared to control: significantly reduced
[4]; Leu replaced with keto Leu
  concentration of Leu in the spent medium vs positive control: slightly lower
[7]
  IgG titer compared to control: slightly lower
  Leu concentration in spent media vs control: nearly similar
  VCD compared to control: lower VCD
  overall specific productivity: slightly increased
CHOK1GS cell line [5]; [10]
  growth / performance vs control: comparable
CHOK1GS cell line [5]; spent medium
  initial keto acid concentration detected in form of the amino acid: 34%
CHOK1GS cell line [8]; seeding 0.6.10^6 and 0.3.10^6 cells/mL
  keto Leu share at which highest VCD was observed: 50%
CHOK1GS cell line [8]; seeding at 0.3 and 1.10^6 cells/mL
  titer between ratios keto Leu/Leu: no significant difference
CHOK1GS cell line [8]; seeding at 0.6.10^6 cells/mL
  IgG concentration between ratios keto Leu/Leu: slight trend
CHOK1GS cell line [8]; seeding density 1.10^6 cells/mL
  keto Leu exchange at which maximum VCD was observed: 100%

## N[C@@H](Cc1ccccc1)C(=O)O [Phenylalanine, reference compound]
[1]
  Solubility (amino acid): 26.8 g/kg

## O=C([O-])C(=O)Cc1ccccc1.[Na+] [phenylpyruvate, Phenylpyruvic acid sodium salt]
[1]
  Solubility 25° C. in g/kg (corresponding keto acid): 72 g/kg
[9]; 2× the molar equivalent of Phe
  Phe in the spent medium vs control: very similar amount
  VCD vs control: restore
  titer vs control: restore
[9]; [11]
  Phe in the supernatant compared to negative control: more Phe
  final reduction of titer: 20%
[9]; equivalent molar concentration (1×), after day 5
  VCD vs control: significant lower VCD

## CSCC[C@H](N)C(=O)O [Methionine, reference compound]
[1]
  Solubility (amino acid): 52.9 g/kg

## CC(C)C[C@H](N)C(=O)O [Leucine, reference compound]
[1]
  maximum solubilities obtained in water: 22.1 g/kg
  Solubility (amino acid): 22.1 g/kg
physchem
  solubility at 10 min: ~90 mM (≈ 11.8 mg/mL)

## CC(C)C(=O)C(=O)[O-].[Na+] [keto Val, α-Ketoisovaleric acid sodium salt]
[1]; in water
  higher solubility when compared to Val: 6 ×
[1]
  Solubility 25° C. in g/kg (corresponding keto acid): 362 g/kg
[9]; [12]
  NH3 concentration: lower
  VCD compared to positive control: similar
  titer compared to positive control: similar

## CC(C)C[C@H](N)C(=O)[O-].[Na+] [Leu sodium salt, reference compound]
[1]
  maximum solubilities obtained in water: 86.0 g/kg
